Laboratory results published in patent US20240025906A1 (NEURON23, INC., priority 2022, published 2024).
Like-named read-outs stand apart in the source and are kept apart here.

Experiments:
TYK2 JH2 = target: T1, TYK2 JH2 (Homo sapiens, UniProt P29597); experiment: TYK2 JH2 binding assay (KINOMEscan KdELECT competitive binding); details: TYK2 JH2 domain
T1 construct: purchased DiscoverX (KINOMEscan KdELECT service); host or cells: E. coli BL21-derived (T7 phage display) or HEK-293
How it was run: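 Competition binding, KdELECT format. Kinase (phage-tagged, E. coli BL21-derived host; or HEK-293, DNA-tagged) + ligand-coated streptavidin beads + cpd, 1 h RT, final DMSO 0.9%. Wash, elute 30 min with 0.5 μM non-biotinylated ligand; qPCR readout. Kd: 11-pt, 3-fold series.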

[1] = test system: JAK1/TYK2 pSTAT5 (Tyr694/699) in THP-1 cell line; experiment: IFNa-stimulated JAK1/TYK2 pSTAT5 (Tyr694/699) inhibition cellular assay, AlphaLISA; format: cell-based; details: THP-1 cells, AlphaLISA (Assay B)
How it was run: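 Compound dilutions were dispensed first, and HBSS-suspended THP-1 cells were added on top (final top concentration 10000 nM, 6-fold series). After 1 h at 37 °C, IFNa (100 ng/mL as added) was applied for 30 min. Cells were then lysed and pSTAT5 was quantified by AlphaLISA.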

[2] = KINOMEscan KdELECT (Assay A), read-out: Biochemical TYK2_DiscoverX_JH2_BND_Kd
[3] = Homo sapiens, IFNa-stimulated, read-out: Cellular_THP1_IFNa-pSTATS_TYK2
[4] = DiscoverX KINOMEscan KdELECT (Assay A), read-out: Biochemical TYK2_DiscoverX_JH2_BND_Kd
[5] = KINOMEscan KdELECT (Assay A), read-out: Biochemical TYK2_JH2_Kd
[6] = Homo sapiens, IFNa-stimulated, read-out: Cellular THP1_IFNa-pSTATS_IC50
[7] = Homo sapiens, IFNa-stimulated pSTAT5 (Tyr694/699), read-out: Cellular_THP1_IFNa-pSTATS_TYK2

T1 sequence (P29597 589-875 limits assumed): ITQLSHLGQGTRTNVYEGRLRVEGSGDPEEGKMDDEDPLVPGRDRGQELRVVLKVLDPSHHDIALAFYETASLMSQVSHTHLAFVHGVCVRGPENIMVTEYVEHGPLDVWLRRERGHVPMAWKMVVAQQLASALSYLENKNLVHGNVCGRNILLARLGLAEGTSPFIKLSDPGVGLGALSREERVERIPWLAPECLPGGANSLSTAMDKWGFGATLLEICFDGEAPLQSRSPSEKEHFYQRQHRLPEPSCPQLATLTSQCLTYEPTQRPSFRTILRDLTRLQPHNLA

Structure (SMILES) | Kd (TYK2 JH2; [2]) [nM] | IC50 [1, 3] [nM] | Kd (TYK2 JH2; [4]) [nM] | also measured
CNc1ncc(C#Cc2ccncc2OC)c2cc(NC(=O)C3CC3)ncc12 [Example 612, N-(5-((3-methoxypyridin-4-yl)ethynyl)-8-(methylamino)-2,7-naphthyridin-3-yl)cyclopropanecarboxamide] | ≤ 100 | ≤ 500 | – | –
CNc1ncc(C#Cc2ncc(OC)cc2Cl)c2cc(NC(=O)C3CC3)ncc12 [Example 643, N-(5-((3-chloro-5-methoxypyridin-2-yl)ethynyl)-8-(methylamino)-2,7-naphthyridin-3-yl)cyclopropanecarboxamide] | ≤ 100 | ≤ 500 | – | –
C#Cc1cnc(NC)c2cnc(NC(=O)C3CC3)cc12 [Example 125, N-(5-ethynyl-8-(methylamino)-2,7-naphthyridin-3-yl)cyclopropanecarboxamide] | – | – | – | Kd (TYK2 JH2; [5]): ≤ 100 nM; IC50 [1, 6]: > 500 nM
CNc1ncc(C#Cc2cc3ccccn3n2)c2cc(NC(=O)C3CC3)ncc12 [Example 680, N-(8-(methylamino)-5-(pyrazolo[1,5-a]pyridin-2-ylethynyl)-2,7-naphthyridin-3-yl)cyclopropanecarboxamide] | ≤ 100 | ≤ 500 | – | –
CNc1ncc(C#Cc2ccc(NC(C)=O)cc2)c2cc(NC(=O)C3CC3)ncc12 [Example 670, N-(5-((4-acetamidophenyl)ethynyl)-8-(methylamino)-2,7-naphthyridin-3-yl)cyclopropanecarboxamide] | ≤ 100 | ≤ 500 | – | –
CNc1ncc(-c2ccc(OC(F)F)cc2)c2cc(NC(=O)C3CC3)ncc12 [Example 112, N-(5-(4-(difluoromethoxy)phenyl)-8-(methylamino)-2,7-naphthyridin-3-yl)cyclopropanecarboxamide] | – | – | – | Kd (TYK2 JH2; [5]): ≤ 100 nM; IC50 [1, 6]: > 500 nM
[2H]C([2H])([2H])n1cc(C#Cc2cnc(NC)c3cnc(NC(=O)C4CC4)cc23)nc1C [Example 898, N-(5-((2-methyl-1-(methyl-d3)-1H-imidazol-4-yl)ethynyl)-8-(methylamino)-2,7-naphthyridin-3-yl)cyclopropanecarboxamide] | ≤ 100 | ≤ 500 | – | –
CNc1ncc(-c2ccccc2Cl)c2cc(NC(=O)C3CC3)ncc12 [Example 15, N-(5-(2-chlorophenyl)-8-(methylamino)-2,7-naphthyridin-3-yl)cyclopropanecarboxamide] | – | – | – | Kd (TYK2 JH2; [5]): ≤ 100 nM; IC50 [1, 6]: > 500 nM
[2H]C([2H])([2H])n1nnc2ccc(C#Cc3cnc(NC)c4cnc(NC(=O)C5CC5)cc34)cc21 [Example 817, N-(5-((1-(methyl-d3)-1H-benzo[d][1,2,3]triazol-6-yl)ethynyl)-8-(methylamino)-2,7-naphthyridin-3-yl)cyclopropanecarboxamide] | ≤ 100 | ≤ 500 | – | –
CNc1ncc(C#Cc2ccnc(C(F)F)c2)c2cc(NC(=O)C3CC3)ncc12 [Example 621, N-(5-((2-(difluoromethyl)pyridin-4-yl)ethynyl)-8-(methylamino)-2,7-naphthyridin-3-yl)cyclopropanecarboxamide] | ≤ 100 | ≤ 500 | – | –
[2H]C([2H])([2H])Nc1ncc(-c2nc3ccccc3o2)c2cc(NC(=O)C3CC3F)ncc12 (racemic) [Example 433, N-(5-(benzo[d]oxazol-2-yl)-8-((methyl-d3)amino)-2,7-naphthyridin-3-yl)-2-fluorocyclopropane-1-carboxamide] | – | ≤ 500 | ≤ 100 | –
CNc1ncc(C#Cc2ccnc(C)c2)c2cc(NC(=O)C3CC3)ncc12 [Example 601, N-(8-(methylamino)-5-((2-methylpyridin-4-yl)ethynyl)-2,7-naphthyridin-3-yl)cyclopropanecarboxamide] | ≤ 100 | ≤ 500 | – | –
CNc1ncc(C#Cc2ccc(OC)cn2)c2cc(Nc3cccn(-c4ccccn4)c3=O)ncc12 [Example 1087, 3-[[5-[2-(5-methoxy-2-pyridyl)ethynyl]-8-(methylamino)-2,7-naphthyridin-3-yl]amino]-1-(2-pyridyl)pyridin-2-one] | ≤ 100 | – | – | IC50 [1, 7]: > 500 nM

More lines, main results first:

Kd (TYK2 JH2; [2]) [nM] | IC50 [1, 3] [nM] | Kd (TYK2 JH2; [4]) [nM] | Structure (SMILES) | also measured
– | – | ≤ 100 | [2H]C([2H])([2H])Nc1ncc(-c2nc3ccccn3n2)c2cc(NC(=O)C3CC3F)ncc12 (racemic) [Example 565, N-(5-([1,2,4]triazolo[1,5-a]pyridin-2-yl)-8-((methyl-d3)amino)-2,7-naphthyridin-3-yl)-2-fluorocyclopropane-1-carboxamide] | IC50 ([1]; IFNa-stimulated, read-out: Cellular_THP1_IFNa-pSTATS_TYK2): ≤ 500 nM
– | ≤ 500 | ≤ 100 | CCNc1ncc(-c2nc3ccc(N4CCOCC4)cn3n2)c2cc(NC(=O)C3CC3)ncc12 [Example 514, N-(8-(ethylamino)-5-(6-morpholino-[1,2,4]triazolo[1,5-a]pyridin-2-yl)-2,7-naphthyridin-3-yl)cyclopropanecarboxamide] | –
– | ≤ 500 | ≤ 100 | CNc1ncc(-c2nc3cc(N4CC(C)(OC)C4)ccc3o2)c2cc(NC(=O)C3CC3)ncc12 [Example 286, N-(5-(5-(3-methoxy-3-methylazetidin-1-yl)benzo[d]oxazol-2-yl)-8-(methylamino)-2,7-naphthyridin-3-yl)cyclopropanecarboxamide] | –
– | ≤ 500 | ≤ 100 | CNc1ncc(-c2nc3cc(N4CC(F)(F)C4)ccc3o2)c2cc(NC(=O)C3CC3)ncc12 [Example 279, N-(5-(5-(3,3-difluoroazetidin-1-yl)benzo[d]oxazol-2-yl)-8-(methylamino)-2,7-naphthyridin-3-yl)cyclopropanecarboxamide] | –
– | ≤ 500 | ≤ 100 | CNc1ncc(-c2nc3c(Cl)cccn3n2)c2cc(NC(=O)C3CC3)ncc12 [Example 491, N-(5-(8-chloro-[1,2,4]triazolo[1,5-a]pyridin-2-yl)-8-(methylamino)-2,7-naphthyridin-3-yl)cyclopropanecarboxamide] | –
≤ 100 | – | – | CNc1ncc(-c2nc3cc(OC)ccc3o2)c2cc(NC(=O)[C@@H]3C[C@H]3C)ncc12 [Example 1061, (1R,2R)-N-(5-(5-methoxybenzo[d]oxazol-2-yl)-8-(methylamino)-2,7-naphthyridin-3-yl)-2-methylcyclopropane-1-carboxamide] | IC50 [1, 7]: ≤ 500 nM
– | ≤ 500 | ≤ 100 | CNc1ncc(-c2nc3cc(N4CC[C@H](OC)C4)ccc3o2)c2cc(NC(=O)C3CC3)ncc12 [Example 282, (S)-N-(5-(5-(3-methoxypyrrolidin-1-yl)benzo[d]oxazol-2-y1)-8-(methylamino)-2,7-naphthyridin-3-yl)cyclopropanecarboxamide] | –
– | ≤ 500 | ≤ 100 | CNc1ncc(-c2nc3cc(N4CCOC[C@@H]4C)ccc3o2)c2cc(NC(=O)C3CC3)ncc12 [Example 308, (S)-N-(8-(methylamino)-5-(5-(3-methylmorpholino)benzo[d]oxazol-2-yl)-2,7-naphthyridin-3-yl)cyclopropanecarboxamide] | –
≤ 100 | – | – | CNc1ncc(-c2nc3ccc(N4CCOCC4)cn3n2)c2cc(NC(=O)C3CC3(F)F)ncc12 (stereo not shown) [Example 1071, 2,2-difluoro-N-(8-(methylamino)-5-(6-morpholino-[1,2,4]triazolo[1,5-a]pyridin-2-yl)-2,7-naphthyridin-3-yl)cyclopropane-1-carboxamide] | IC50 [1, 7]: ≤ 500 nM
≤ 100 | – | – | CNc1ncc(-c2nc3ccc(N4CCOCC4)cn3n2)c2cc(Nc3nccc(C(C)(C)O)c3F)ncc12 [Example 1089, 2-[3-fluoro-2-[[8-(methylamino)-5-(6-morpholino-[1,2,4]triazolo[1,5-a]pyridin-2-yl)-2,7-naphthyridin-3-yl]amino]-4-pyridyl]propan-2-ol] | IC50 [1, 7]: ≤ 500 nM
